Data taken from US11696537B2, “Composition and method for increasing the content of glucosinolates in adult plants of the genus brassica” (CONSEJO SUPERIOR DE INVESTIGACIONES CIENTÍFICAS (CSIC), priority 2018, dated 2023).

Assays:
[1] = system: Brassica oleracea var. Italica Parthenon; assay: Greenhouse test: concentration of glucosinolates on leaves and inflorescences after foliar application; assay type: in vivo
Procedure: (§1) In a growth chamber, seeds of the broccoli cultivar (Brassica oleracea var. Italica) Parthenon which grew for 30 days were germinated. Subsequently, they were allowed to grow in a greenhouse for 75 days until the inflorescences reached commercial size. In this case, foliar application of the treatments indicated below was carried out by spraying between 100 and 150 ml per plant: one at the time the flower bud appears and the following applications 5 and 10 days, respectively, after the first application.
Control composition: consisting of a solution containing 0.2% by volume of ethanol and 99.8% by volume of water.
Surfactant composition 1 (Triton X-100): consisting of a solution containing 0.1% by volume of Triton X-100 surfactant and 99.9% by volume of water.
Surfactant composition 2 (MPP): consisting of a solution containing 0.1% by volume of the modified polysiloxane polyether surfactant and 99.9% by volume of water.
Elicitor composition (MeJA): consisting of a solution containing 0.0022% by volume of MeJA, 0.2% by volume of ethanol and 99.7978% by volume of water.
Composition 2 (MeJA+Triton X-100): consisting of a solution containing 0.0022% by volume of MeJA, 0.2% by volume of ethanol, 0.1% by volume of Triton X-100 and 99.70% by volume of water.
Composition 1 (MeJA+MPP): A solution was prepared containing 0.0022% by volume of MeJA (for a final concentration of 100 micromolar in the composition), 0.2% by volume of ethanol, 0.1% by volume of polysiloxane polyether and 99.7968% by volume of water.
Subsequently, the plants were harvested and the leaves and inflorescences were frozen in liquid nitrogen and immediately lyophilised to prevent the compounds of interest from degrading until it was time to determine the glucosinolates and metabolites of interest.
The analyses were carried out on the leaf and inflorescence at the time of collecting the commercial size. The method used for extracting glucosinolates was based on the method developed by the research group and currently in the public domain: Dominguez-Perles et al. (2010) Journal of Food Science 75, 383-392. The quantitative analysis was carried out by HPLC-DAD. The lyophilised and ground samples (100 mg) were extracted with 1 ml of 70% MeOH in a hot bath at 70° C. for 30 minutes, stirring every 5 minutes in a vortex, to optimise the extraction. The reaction was then stopped in an ice bath and the samples were centrifuged to precipitate the insoluble material, for 15 minutes, at 10,000 g and at 4° C. The supernatant was collected and the methanol was removed on a rotary evaporator with a thermostatically controlled bath at 38° C. The dry residue obtained was redissolved in ultra-pure water and filtered (00.22 μm of PVDF) for the subsequent analysis thereof.
Each sample (20 μl) was analysed in high-performance liquid chromatography (HPLC) equipped with a pump for binary eluent partitioning, an inline degasser, a photodiode detector autosampler (DAD). The compounds were separated in a C18 column measuring 250×4 mm and with a 0.4 um pore diameter, in reversed phase liquid chromatography (RP-HPLC) mode. The glucosinolates were identified using the methodology already described by the research group and publicly available for multipurpose analysis of intact glucosinolates (Martinez-Sánchez et al. 2006 Postharvest Biol. Technol. 42, 86-97; Dominguez-Perles et al. (2010) Journal of Food Sci. 75, 383-392), based on the retention times of the respective analytical peaks, the maximum absorption spectra thereof in the UV-Vis range and the comparison with commercially available external standards, sinigrin for aliphatic glucosinolates and glucobrassicin for indolic glucosinolates (Baenas et al. (2012) J. Agric. Food Chemistry, 60, 11409-11420). The detection was carried out at 227 nm and the concentration of glucosinolates was expressed in μmol/g of plant tissue dry weight. […]

Drop dispersion = assay type: physicochemical; conditions: under binoculars (1.6×), FIG. 3
Procedure: The drop dispersion of Compositions 1 and 2 and that of elicitor Composition (MeJA) was determined under binoculars (1.6×) (FIG. 3).

[2] = system: Brassica oleracea var. Italica Parthenon; conditions: in vivo
Procedure: as §1

| Compound | Total GLS ([1]; INFLORESCENCE) [mg/g DW] | mg GBS/g DW ([1]; INFLORESCENCE) [mg/g DW] | mg GRA/g DW ([1]; INFLORESCENCE) [mg/g DW] | mg NGB/g DW ([1]; INFLORESCENCE) [mg/g DW] | Total GLS ([1]; LEAF) [mg/g DW] | mg GBS/g DW ([1]; LEAF) [mg/g DW] | mg GRA/g DW ([1]; LEAF) [mg/g DW] | mg NGB/g DW ([1]; LEAF) [mg/g DW] | drop dispersion (Drop dispersion) | % of Commercial heads [2] [%] |
| --- | --- | --- | --- | --- | --- | --- | --- | --- | --- | --- |
| CC/C=C\CC1C(=O)CCC1CC(=O)OC (centres unmarked) [MeJA, methyl jasmonate] | 4.97 | 2.05 | 1.70 | 1.22 | 1.75 | 0.71 | 0.35 | 0.69 | no dispersion is observed | 100 |
| Triton X-100 |  |  |  |  |  |  |  |  |  | 81.1 |
